These results are taken from US20100172870A1, “METHODS, USES AND COMPOSITIONS FOR MODULATING REPLICATION OF HCV THROUGH THE FARNESOID X RECEPTOR (FXR) ACTIVATION OR INHIBITION” (priority 2006, published 2010).

The structures appear in SMILES notation.

The test system of data set [1] is genotype 1b replicon (R1b). Nature of the data set: HCV subgenomic replicon R1b luciferase assay. It is filed as cell-based, hepatitis C virus (HCV). From the text: Replicons: Three subgenomic replicons were used in this study: two replicative forms called R1a and R1b according to their genotype origin and a derivative of the R1b replicon with a mutation in the RNA-dependant RNA polymerase (Rp-del) which is thus unable to replicate and was used as a negative control in all experiments. They are bicistronic RNAs which contains the firefly luciferase (Photinus pyralis) reporter gene downstream of the HCV IRES and the sequence coding for the polyprotein NS3 to NS5B downstream of the encephalomyocarditis virus (EMCV) IRES.
RNA transfection: The replicons were transfected into Huh7 cells by electroporation.
Subconfluent monolayers of Huh7 cells were detached from the culture dish by trypsin treatment and rinsing with complete DMEM. […] 400 μL of the cell suspension was mixed by gentle pipetting with 8 μg RNA (R1a, R1b or Rp-del) and transferred into an electroporation cuvette with a gap-width of 0.4 cm (BioRad). The mixture was immediately subjected to one electric pulse at 270 V, 950 μF and maximum resistance using a Gene Pulser System (BioRad).
After electroporation the 400 μL of each cell suspension was diluted in 9 mL complete DMEM and pooled together before being seeded onto 24-well plates (1 mL per well).
Luciferase Assay: Cells were washed with PBS and scraped off the plate with 80 μL of 1× Luciferase Cell Culture Lysis Reagent (Promega). 40 μL of the lysate were transferred to a 96-well plate and mixed with 200 μL of Luciferase Assay Reagent (Promega). Luminescence expressed as relative light units (RLU) was measured immediately on a scintillation counter (Top Count NXT, Perkin Elmer) for 10 s.
(§1) The data are averages from triplicate cultures. […] The values are expressed as relative ratios of the values obtained 4 h after electroporation. Unless otherwise stated, the RLU values were determined 72 h after transfection when cells were confluent.

Data set [2] has as its system replicon transfected cells (Huh7). Nature of the data set: Toxicity for Huh7 / replicon transfected cells. It is filed as cell-based, human. From the text: BAs, sterols and fatty acids are structurally related natural ligands of the NR1 family of nuclear receptors expressed in the liver and intestine. […] BAs were recently described as the natural ligands for FXR (Makishima M. et al. 2002; Parks D J. et al. 1999). To examine whether BAs were mediating their effects on HCV RNA replication through FXR we tested a panel of FXR ligands including the two formerly described FXR ligands that activate FXR at supraphysiological concentrations, farnesol and the synthetic retinoid TTNPB at a concentration of 10 μM each and other BAs such as CA, LCA, and UDCA, all at a concentration of 100 μM (FIG. 4B).
For orientation: A replicon is a self-replicating genome or part of one, used to study replication in cells.

Data set [3] deals with non-structural proteins NS4a and NS5a in R1b-transfected cells. Nature of the data set: HCV protein expression by immunofluorescence staining and FACS analysis. The class given is cell-based, hepatitis C virus (HCV). The conditions noted are these: for NS5a positive cells by FACS analysis: 3 days of treatment (untreated 22%); for mean fluorescence intensity in the positive cells: NS5a-labeling, 3 days (untreated 16). The method, then:
Immunofluorescence staining: Three days after electroporation, cells were plated in 8-well chamber slides at a density of 5×10^4 cells per well. 24 hours after, slides were washed in PBS and fixed in ⅔ acetone-ethanol for 5 minutes at −20° C. followed by 50 minutes block in PBS-glycin 0.2M. Primary antibodies were added to the cells at a 1:500 dilution in PBS-glycin 0.2M for 1 h at room temperature. After 3 washes in PBS, fluorescein conjugated secondary antibodies (Jackson ImmunoResearch) were added to the cells at a 1:50 dilution in PBS-glycin 0.2M for 40 minutes at room temperature. In the meantime, cells were counterstained with Evans Blue (Merck).
FACS analysis: 72 h post-electroporation, single-cell suspension was prepared for FACS analysis. Briefly 0.8.10^6 cells were fixed and permeabilised for 15 min at room temperature with Cytofix/Cytoperm (PharMingen). Cells were stained for 30 min with primary antibodies at a 1:500 dilution in Perm/Wash Buffer (PharMingen). Bound monoclonal antibody was detected by incubation for 30 min at 4° C. with secondary antibody diluted 1:100 in Perm/Wash Buffer. The stained cells were resuspended in PBS prior to analysis using a FACSCalibur 3C (BD Biosciences).
For orientation: Flow cytometry measures light scatter and fluorescence of single cells or particles in a stream.

Data set [4] relates to genotype 1a replicon (R1a). Nature of the data set: HCV subgenomic replicon R1a luciferase assay. The class given is cell-based, hepatitis C virus (HCV). The conditions noted are these: Huh7-Lunet cells, 72 h of treatment, CDCA 100 μM or GGS 10 μM.
From the text: Replicons: Three subgenomic replicons were used in this study: two replicative forms called R1a and R1b according to their genotype origin and a derivative of the R1b replicon with a mutation in the RNA-dependant RNA polymerase (Rp-del) which is thus unable to replicate and was used as a negative control in all experiments. They are bicistronic RNAs which contains the firefly luciferase (Photinus pyralis) reporter gene downstream of the HCV IRES and the sequence coding for the polyprotein NS3 to NS5B downstream of the encephalomyocarditis virus (EMCV) IRES. […]
Subconfluent monolayers of Huh7 cells were detached from the culture dish by trypsin treatment and rinsing with complete DMEM. The cells were washed once with phosphate buffer saline (PBS), counted and resuspended at 10^7 cells per mL in Cytomix buffer (Van den Hoff, M J. Et al. 1992). […]
Luciferase Assay: Cells were washed with PBS and scraped off the plate with 80 μL of 1× Luciferase Cell Culture Lysis Reagent (Promega). […] Luminescence expressed as relative light units (RLU) was measured immediately on a scintillation counter (Top Count NXT, Perkin Elmer) for 10 s.
as §1

In data set [5] the target is T1, FXR (Homo sapiens, UniProt Q96RI1).
T1 construct: host or cells: HepG2
T1 sequence (Q96RI1 1-486): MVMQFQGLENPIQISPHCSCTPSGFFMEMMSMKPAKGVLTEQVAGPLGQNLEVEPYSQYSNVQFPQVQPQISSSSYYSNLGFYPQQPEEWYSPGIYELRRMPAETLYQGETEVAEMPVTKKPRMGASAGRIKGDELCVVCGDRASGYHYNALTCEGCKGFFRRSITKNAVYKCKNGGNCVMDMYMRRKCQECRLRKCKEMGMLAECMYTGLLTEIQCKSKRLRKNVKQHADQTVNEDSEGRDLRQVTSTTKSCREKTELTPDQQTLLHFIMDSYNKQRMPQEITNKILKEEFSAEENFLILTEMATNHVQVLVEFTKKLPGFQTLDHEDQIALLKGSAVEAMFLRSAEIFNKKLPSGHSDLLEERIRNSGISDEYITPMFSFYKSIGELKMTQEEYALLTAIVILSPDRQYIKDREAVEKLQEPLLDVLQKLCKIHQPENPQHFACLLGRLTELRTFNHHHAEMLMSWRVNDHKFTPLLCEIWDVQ
Particulars: Urizar N L. et al. 2002, cited from earlier work.

As for `CC(C)CCC[C@@H](C)[C@H]1CC[C@H]2[C@@H]3CC=C4C[C@@H](O)CC[C@]4(C)[C@H]3CC[C@]12C` [cholesterol], in data set [1] (Huh7 cells, 72 h (FIG. 4B)), the “effect on luciferase activity at 10 μM” value is listed as “did not show any effect on replication”.
Take `C[C@H](CCCC(C)(C)O)[C@H]1CC[C@H]2[C@@H]3CC=C4C[C@@H](O)CC[C@]4(C)[C@H]3CC[C@]12C` [25-hydroxycholesterol]: the “effect on luciferase activity at 1 μM” value in data set [1] (Huh7 cells, 1 μM, 72 h (FIG. 4B)) was “did not show any effect on replication”.
In the case of `C[C@H](CCC(=O)O)[C@H]1CC[C@H]2[C@@H]3CC[C@@H]4C[C@H](O)CC[C@]4(C)[C@H]3C[C@H](O)[C@]12C` [DCA, deoxycholic acid], in data set [1] (Huh7 cells, 72 h), the “concentration reaching maximum level of luciferase activity” value is 100 µM. Also, in data set [1] (Huh7 cells, DCA 100 μM, 72 h of treatment, vs untreated R1b cells), the “increase of luciferase activity” value worked out at 15 fold. In addition, the “time over which high levels of luciferase activities could be maintained” value in data set [1] (Huh7 cells, DCA 100 μM, long-term culture with passages every 3 or 4 days) is “more than 2 weeks”. Further, the “mortality of treated cells compared to untreated” value in data set [2] (Huh7 cells, 100 μM) is given as “No increase in the mortality”.
As to `C[C@H](CCC(=O)O)[C@H]1CC[C@H]2[C@@H]3[C@H](O)C[C@@H]4C[C@H](O)CC[C@]4(C)[C@H]3C[C@H](O)[C@]12C` [CA, cholic acid], the “effect on luciferase activity at 100 μM” value in data set [1] (Huh7 cells, 72 h (FIG. 4B)) is recorded as “only weak activity”.
For `C[C@H](CCC(=O)O)[C@H]1CC[C@H]2[C@@H]3[C@H](O)C[C@@H]4C[C@H](O)CC[C@]4(C)[C@H]3CC[C@]12C` [CDCA, chenodeoxycholic acid], the “effect on luciferase activity at 100 μM” value in data set [1] (Huh7 cells, 72 h (FIG. 4B)) is “most potent activator”. The “effect on luciferase activity, dose-response” value in data set [1] (Huh7 cells, 10, 50 or 100 μM, 72 h) is reported as “dose-dependent”. Moreover, in data set [1] (Huh7 cells, 72 h), the “concentration reaching maximum level of luciferase activity” value stood at 100 µM and the “lowest concentration with detectable specific activity on luciferase” value turned out to be 10 µM. Further, in data set [1] (Huh7 cells, dose-response, 72 h), the “up-regulation of HCV RNA replication, comparison of free BAs” value was “more efficiently than DCA”. In addition, in data set [3], the “NS5a positive cells by FACS analysis” value turned out to be 27% and the “mean fluorescence intensity in the positive cells” value was 39. Moreover, the “response of genotype 1a replicon to FXR-modulation” value in data set [4] is “same behaviour as genotype 1b”.
As to `C/C=C1\C(=O)CC2C3CCC4=CC(=O)CC[C@]4(C)C3CC[C@]12C` (stereo partly drawn) [GGS, trans-4,17(20)-pregnadiene-3,16-dione], the inhibition at 20 µM in data set [1] (Hepatitis C virus, Huh-7, Huh7-Lunet cells, 20 μM, 72 h, read-out: inhibition of the replication) was at most 95%. Also, the IC50 in data set [1] (Hepatitis C virus, Huh-7, Huh7-Lunet cells, basal replication, 72 h, read-out: inhibitory concentration causing a decrease of half the basal activity (IC50)) was about 2000 nM. The “inhibition of the effect of CDCA on replication” value in data set [1] (Huh7-Lunet cells, CDCA 100 μM, guggulsterone 0.01 μM up to 20 μM, 72 h) is reported as “inhibited in a dose-dependent fashion”. In data set [1] (Huh7-Lunet cells, GGS 10 μM plus IFN, 72 h), the “further decrease of luciferase activity when associated to a given concentration of IFN” value was “about 10 fold”. Moreover, the “inhibition of the basal replication of HCV” value in data set [1] (Huh7-Lunet cells, absence of BAs stimulation, 72 h) was “could also inhibit the basal replication”. Besides, in data set [2] (replicon transfected cells), the “concentrations toxic for the replicon transfected cells” value amounted to 40 µM. The “NS4a and NS5a expression” value in data set [3] (3 days of treatment) is recorded as “almost completely abolished”. Besides, in data set [3], the “NS5a positive cells by FACS analysis” value was 4% and the “mean fluorescence intensity in the positive cells” value is listed as “very weak fluorescence intensity”. The “response of genotype 1a replicon to FXR-modulation” value in data set [4] is on record as “same behaviour as genotype 1b”. In data set [5] (HepG2 cells, bile salt export pump promoter-driven luciferase construct), the “effect of GGS alone on FXR activity” value is reported as “had no effect”. Also, the “concentration range antagonizing FXR” value in data set [5] is “micromolar range”.
As to `C/C(=C\c1ccc(C(=O)O)cc1)c1ccc2c(c1)C(C)(C)CCC2(C)C` [TTNPB, (E)-[(tetrahydrotetramethylnaphthalenyl)propenyl]benzoic acid], the “effect on luciferase activity at 10 μM” value in data set [1] (Huh7 cells, 72 h (FIG. 4B)) is reported as “slightly increased”.
With `CC(C)=CCCC(C)=CCCC(C)=CCO` [farnesol], the “effect on luciferase activity at 10 μM” value in data set [1] (Huh7 cells, 72 h (FIG. 4B)) is reported as “slightly increased”.
In the case of `CC(C)CCC(O)[C@@H](C)[C@H]1CC[C@H]2[C@@H]3CC=C4C[C@@H](O)CC[C@]4(C)[C@H]3CC[C@]12C` (some centres unmarked) [22-hydroxycholesterol], the “effect on luciferase activity at 5 μM” value in data set [1] (Huh7 cells, 72 h (FIG. 4B)) is “did not show any effect on replication”.
In the case of `CC(=O)[C@H]1CC[C@H]2[C@@H]3CC=C4C[C@@H](O)CC[C@]4(C)[C@H]3CC[C@]12C` [pregnenolone], the “effect on luciferase activity at 10 μM” value in data set [1] (Huh7 cells, 72 h (FIG. 4B)) is listed as “None of these compounds induced any upregulation of the luciferase activity”.
In the case of `CC(=O)[C@H]1CC[C@H]2[C@@H]3CCC4=CC(=O)CC[C@]4(C)[C@H]3CC[C@]12C` [progesterone], the “effect on luciferase activity at 5 μM” value in data set [1] (Huh7 cells, 72 h (FIG. 4B)) is recorded as “None of these compounds induced any upregulation of the luciferase activity”.

As usually defined, the inhibition is the share of the control response that was lost under treatment.
